Results taken from patent US20150368617A1, “METHOD FOR FORMING ENDOTHELIAL CELLS” (Korea Advanced Institute of Science and Technology (KAIST), priority 2012, published 2015).

System: Flk1+ MPCs
Experiment: Differentiation and expansion of ECs from Flk1+ MPCs in feeder cell-free 2D Matrigel system, FACS of CD31+/CD144+ ECs
Type: cell-based, mouse
Settings: for differentiation and expansion of ECs compared to control: Y27632 10 μM; for increase of CD31+/CD144+ EC population compared to Control: day 6.5, E14tg2a
Experimental: E14tg2a ESC cell line was a generous gift from Dr. Jun K. Yamashita (Kyoto University), and R1 ESC cell line was purchased from American Type Cell Culture. Mouse iPSC derived from FVB strain was a generous gift from Drs. Hyun-Jai Cho and Hyo-Soo Kim (Seoul National University Hospital). To obtain Flk1+ MPCs, ESCs and iPSCs were cultured on 0.1% gelatin-coated plates at a density of 1-2×10^3 cells/cm^2 in differentiation medium [┌−minimal essential medium (Invitrogen) supplemented with 10% fetal bovine serum (FBS)] without leukemia inhibitory factor (LIF). At day 4.5, the Flk1+ MPCs were purified by AutoMACS™Pro Separator (Miltenyi Biotec) with biotin-conjugated anti-mouse Flk1 antibody (clone AVAS12a1, eBioscience) and streptavidin MicroBeads (Miltenyi Biotec). The Flk1+MPCs were then subsequently plated onto Matrigel (BD Biosciences)-coated plates at a density of 1˜2×10^4 cells/cm^2, and were cultured in differentiation medium supplemented with VEGF-A165 (50 ng/ml, Peprotech). To purify the ECs from the differentiating Flk1+ cells, the cells were first dissociated and resuspended in HBSS/2% FBS, and were serially incubated with anti-mouse ICAM2 antibody (rat monoclonal, clone 3C4, Biolegend) for 10 min and with anti-rat IgG Microbead (Miltenyi Biotec) for 15 min. […] VEGF-Trap was prepared as previously described. Various signaling inhibitors and activators including SB203580, PD98059, KT5720, Go6976, KT5823, LY294002, rapamycin, Y27632, SB431542, Rho-kinase inhibitor (RKI; H-1152, isoquinolinesulfonamide), and Rho-kinase inhibitor II (RKI-II; pyridyl urea) were purchased from Calbiochem and Sigma-Aldrich.
Cells were harvested with 0.25% trypsin-EDTA (Invitrogen) or dissociation buffer (Invitrogen) and resuspended in HBSS/2% FBS at 1×10^6 cells per 100┌ l. The cells were incubated for 20 min with the following antibodies: biotin-conjugated anti-mouse Flk1 (clone AVAS12a1, eBioscience), allophycocyanin (APC)-conjugated anti-mouse CD140a (clone APA5, eBioscience), phycoerythrin(PE)-conjugated anti-mouse CD31 (clone 390, eBioscience), Alexa Fluor® 647-conjugated anti-mouse CD144 (clone BV13, eBioscience), PE-conjugated anti-mouse D114 (clone HMD4-1, Biolegend), PE-conjugated anti-mouse Tie2 (clone TEK4, eBioscience), PE-conjugated anti-mouse Endoglin (clone MJ7/18, Biolegend), anti-mouse ICAM2 (clone 3C4, Biolegend), APC-conjugated anti-mouse CD140b (clone APBS, eBioscience), PE-conjugated anti-mouse LYVE1 (clone ALY7, eBioscience), anti-mouse VEGFR3 (goat polyclonal, R&D systems), anti-mouse EphB4 (clone VEB4-7E4, Hycult biotech), and PE-conjugated anti-mouse Notch1 (clone HMN1-12, Biolegend). After washing in HBSS/2% FBS twice, the cells were incubated with the following secondary antibodies: PE-conjugated streptavidin (eBioscience), PE-conjugated anti-rat IgG2a (eBioscience), and FITC-conjugated anti-goat IgG (Invitrogen). Dead cells were excluded by 7-aminoactinomycin D (7-AAD, Invitrogen).
Flk1+ MPCs derived from mouse ESCs are capable of differentiating into ECs, hematopoietic cells, mural cells (MCs), and cardiomyocytes. To avoid cell contamination from using feeder cells for differentiation of Flk1+ MPCs, we have established a feeder cell-free 2D Matrigel system (FIG. 1A). Flk1+ MPCs were differentiated from E14tg2a ESC cell line, and when the Flk1+ MPCs were purified at day 4.5 and cultured on Matrigel-coated plates in the differentiation medium, colonies of CD144+ ECs surrounded by ┌ SMA+MCs were formed (FIG. 1B). At day 6.5, population of CD144+/CD31+ ECs grown in differentiation medium was ˜4%, whereas the same EC population was increased up to ˜20% when VEGF-A (50 ng/ml) was supplemented (FIG. 1C). For following experiments, we chose to use 50 ng/ml of VEGF-A (hereafter referred to as VEGF-A) based on its maximal effect on differentiation and expansion of ECs from Flk1+ MPCs.

Q: Which results are given for `C[C@@H](N)[C@H]1CC[C@H](C(=O)Nc2ccncc2)CC1` [Y27632]?
A: total number of CD31+/CD144+ ECs from Flk1+ MPCs (10 μM Y27632 plus VEGF-A compared to only VEGF-A (Control)): ~4.2 fold; percentage of EC population compared to control (48 hrs after removal of the non-adherent cells at 6 hrs): 1.4 fold; differentiation and expansion of ECs compared to control (R1 ESC cell line): 1.6 fold; increase of CD31+/CD144+ EC population compared to Control (Y27632 1 μM with VEGF-A 50 ng/ml): 1.8 fold; increase of CD31+/CD144+ EC population compared to Control (Y27632 10 μM with VEGF-A 50 ng/ml): 4.1 fold; differentiation and expansion of ECs compared to control (iPSC): 5.9 fold; percentage of EC population and total cell number, dose-dependent (various concentrations of Y27632 with VEGF-A): increased
